Data taken from ChEMBL document CHEMBL1154224, “Spiropiperidine CCR5 antagonists” (Bioorg Med Chem Lett, 2009).

Assays:
[1] = tested on: Human immunodeficiency virus 1; experiment: Antiviral activity against recombinant HIV1 virus infected in human JC53BL cells after 3 days; type: functional, organism-based; conditions: Human immunodeficiency virus 1, JC53BL, 72 h
[2] = target: C-C chemokine receptor type 5 (Homo sapiens, UniProt P51681); experiment: Displacement of [125I]RANTES from human CCR5 receptor co-transfected with Galphai6 in CHO cells; type: cell-based
[3] = (§1) Intrinsic clearance in human liver microsomes assessed per mg of protein; type: ADME, Microsome; conditions: liver microsomes
[4] = (§2) Intrinsic clearance in rat liver microsomes assessed per mg of protein; type: ADME, Microsome; conditions: liver microsomes
[5] = Efflux ratio of permeability from basolateral to apical to apical to basolateral side in human 21 days cultured Caco-2 cells; type: ADME, cell-based
[6] = Permeability from apical to basolateral side of the human 21 days cultured Caco-2 cells; type: ADME, cell-based; conditions: read-out: permeability
Liver microsomes [7] = experiment: as §1; type: ADME, Microsome; conditions: microsomes
Liver microsomes [8] = experiment: as §2; type: ADME, Microsome; conditions: microsomes
[9] = Oral bioavailability in rat at 10 mg/kg; type: ADME, organism-based; conditions: in vivo
Homo sapiens = organism: Homo sapiens; experiment: Hepatic blood flow in human; type: ADME, organism-based, Liver

Sequence of C-C chemokine receptor type 5 (P51681 whole entry): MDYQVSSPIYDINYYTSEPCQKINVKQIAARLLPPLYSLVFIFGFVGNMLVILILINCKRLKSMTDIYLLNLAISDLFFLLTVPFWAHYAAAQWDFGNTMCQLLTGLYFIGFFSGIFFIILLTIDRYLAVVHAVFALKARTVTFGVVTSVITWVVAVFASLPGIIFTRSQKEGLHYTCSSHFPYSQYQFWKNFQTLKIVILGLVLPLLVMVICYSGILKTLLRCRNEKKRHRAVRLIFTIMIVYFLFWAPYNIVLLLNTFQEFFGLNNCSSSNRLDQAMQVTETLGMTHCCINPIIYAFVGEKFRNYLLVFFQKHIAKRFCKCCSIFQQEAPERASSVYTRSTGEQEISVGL

Compound	IC50 [1] [nM]	IC50 [2] [nM]	microsomal CLint [3] [µL/min/mg]	further results
CCCC[C@H]1CN(C2CCOCC2)C(=O)OC12CCN(C1(C)CCN(C(=O)c3c(C)ncnc3C)CC1)CC2	84	–	–	–
CCCCC1N(CC2CCCCC2)C(=O)OC12CCN(C1(C)CCN(C(=O)c3c(C)ncnc3C)CC1)CC2 (centres undefined)	46	7	162	–
CCCCC1N(CC2CCCCC2)C(=O)OC12CCN(C1(C)CCN(C(=O)c3c(C)cccc3C)CC1)CC2 (centres undefined)	< 1.2	10	526	microsomal CLint [4]: 523 µL/min/mg; efflux ratio [5]: 0.4; Papp A→B [6]: 14 ×10⁻⁶ cm/s
CCCCC1CN(CC2CCOCC2)C(=O)OC12CCN(C1(C)CCN(C(=O)c3c(C)cc(C#N)nc3C)CC1)CC2 (racemic)	4	24	42	–
CCCC[C@H]1CN(CCC2CCOCC2)C(=O)OC12CCN(C1(C)CCN(C(=O)c3c(C)ncnc3C)CC1)CC2	8	–	37	–
CCCCC1N(CC2CCCCC2)C(=O)OC12CCN(C1CCN(C(=O)c3c(C)cccc3C)CC1)CC2 (centres undefined)	125	51	675	microsomal CLint [4]: 2000 µL/min/mg
CCCCC1N(CC2CCCC2)C(=O)OC12CCN(C1CCN(C(=O)c3c(C)cccc3C)CC1)CC2 (centres undefined)	> 625	18	–	–
CCCC[C@H]1CN(CC2CCOCC2)C(=O)OC12CCN(C1(C)CCN(C(=O)c3c(C)ccnc3C)CC1)CC2	4	61	33	–
CCCC[C@H]1CN(CC2CCC(F)(F)CC2)C(=O)OC12CCN(C1(C)CCN(C(=O)c3c(C)ncnc3C)CC1)CC2	2	27	106	–
CCCCC1CN(CC2CCCCC2)C(=O)OC12CCN(C1CCN(C(=O)c3c(C)ncnc3C)CC1)CC2 (centres undefined)	31	68	–	clearance (Liver microsomes [7]): 119 µL/min/mg; clearance (Liver microsomes [8]): 80 µL/min/mg; bioavailability [9]: 43%; LBF (Homo sapiens): 82%
CCCCC1N(CC2CCCCC2)C(=O)OC12CCN(C1CCN(C(=O)c3ccccc3C)CC1)CC2 (centres undefined)	> 625	100	–	–
CCCC[C@H]1CN(CC2CCCCO2)C(=O)OC12CCN(C1(C)CCN(C(=O)c3c(C)ccnc3C)CC1)CC2 (some centres undefined)	55	10	53	–
CCCCC1CN(CC2CCOCC2)C(=O)OC12CCN(C1CCN(C(=O)c3c(C)ncnc3C)CC1)CC2 (centres undefined)	405	76	–	–
CCCC[C@H]1CN(CC2CCOCC2)C(=O)OC12CCN(C1(C)CCN(C(=O)c3c(C)cc(=O)oc3C)CC1)CC2	3	12	36	–
CCCCC1CN(CC2CCOCC2)C(=O)OC12CCN(C1CCN(C(=O)c3c(C)cccc3C)CC1)CC2 (centres undefined)	24	89	164	–
CCCCC1N(CC2CCOCC2)C(=O)OC12CCN(C1(C)CCN(C(=O)c3c(C)ncnc3C)CC1)CC2 (centres undefined)	375	58	27	efflux ratio [5]: 31; Papp A→B [6]: 0.6 ×10⁻⁶ cm/s
CCCCC1N(Cc2ccccc2)C(=O)OC12CCN(C1CCN(C(=O)c3c(C)cccc3C)CC1)CC2 (centres undefined)	> 625	144	–	–
CCCCC1CN(CC2CCCCC2)C(=O)OC12CCN(C1CCN(C(=O)c3c(C)cccc3C)CC1)CC2 (centres undefined)	29	30	307	–
CCCC[C@H]1CN(C)C(=O)OC12CCN(C1(C)CCN(C(=O)c3c(C)cc(C#N)nc3C)CC1)CC2	12	22	28	–
CCCC[C@H]1CN(CC2CCOCC2)C(=O)OC12CCN(C1(C)CCN(C(=O)c3c(C)cc[n+]([O-])c3C)CC1)CC2	52	80	–	–
CCCCC1CN(CC2CCOCC2)C(=O)OC12CCN(C1(C)CCN(C(=O)c3c(C)ncnc3C)CC1)CC2 (centres undefined)	14	25	17	–
CCCC[C@@H]1CN(CC2CCOCC2)C(=O)OC12CCN(C1(C)CCN(C(=O)c3c(C)ncnc3C)CC1)CC2	> 625	100	17	–
CCCCC1N(CC2CCOCC2)C(=O)OC12CCN(C1CCN(C(=O)c3c(C)cccc3C)CC1)CC2 (centres undefined)	> 625	24	–	–
CCCC[C@H]1CN(CC2CCOCC2)C(=O)OC12CCN(C1(C)CCN(C(=O)c3c(C)nc(C(F)(F)F)nc3C)CC1)CC2	3	97	46	–
CCCC1N(CC2CCCCC2)C(=O)OC12CCN(C1CCN(C(=O)c3c(C)cccc3C)CC1)CC2 (centres undefined)	> 625	300	–	–
